Test results published in US10925858B2, “S-nitrosoglutathione (GSNO) and GSNO reductase inhibitors for use in therapy” (MUSC FOUNDATION FOR RESEARCH DEVELOPMENT, priority 2017, dated 2021).

Columns and labels:
diabetic mice = assay: Radial arm maze in STZ induced diabetic mice; assay type: in vivo
Procedure: Male laca mice weighing between 28-32 g were procured from the Central Animal House, Panjab University, Chandigarh. The animals were acclimatized and were fed with standard pellet diet and water ad libitum. The experimental protocols were approved by the Institutional Ethics Committee and were conducted according to Indian National Science Academy (INSA) guidelines for the use and care of experimental animals. The animals were divided into four groups: (i) Control animals received phosphate buffered saline (PBS) throughout the study; (ii) Control+GSNO animals were administered with GSNO 100 μg/kg body weight orally, dissolved in PBS after every 24 h for 8 weeks; (iii) Diabetic animals were injected with STZ at a dose of 40 mg/kg body weight intraperitoneally for 5 days dissolved in 0.1 mol/L citrate buffer, pH 4.5 and Diabetic+GSNO mice were administered GSNO 100 μg/kg body weight orally dissolved in PBS after every 24 h for 8 weeks after the induction of diabetes. Animals were assessed weekly for development of diabetic encephalopathy in terms of memory deficits. All experimental procedures were done on mice at the end of study. Radial arm maze was used to assess specific learning and memory in the radial arm maze (Veena et al., 2009). Its apparatus consisted of equally spaced arms (35×9×5 cm) radiating from an octagonal central platform, and the maze was kept 80 cm elevated from the ground. Prior to the acquisition, all the arms were baited and mice were allowed to explore the maze for 10 min and were subjected to two such acclimatization sessions on consecutive days. […] An arm choice was recorded when the animal reached the end of an arm. An arm entry was counted when all four paws entered the arm. […] After acquisition period, animals were evaluated for retention of the task. […] The data were analyzed for the number of reference memory errors (exploring an arm never baited), working memory errors (exploring a baited arm already visited), total number of errors, memory retention and % correct choice.

[1] = system: tight junction proteins (ZO-1, Occludin, Claudin-5); assay: Western blotting, protein expression of tight junction proteins in isolated microvessels of diabetic mice; assay type: in vivo
Procedure: Male laca mice weighing between 28-32 g were procured from the Central Animal House, Panjab University, Chandigarh. The animals were acclimatized and were fed with standard pellet diet and water ad libitum. The experimental protocols were approved by the Institutional Ethics Committee and were conducted according to Indian National Science Academy (INSA) guidelines for the use and care of experimental animals. The animals were divided into four groups: (i) Control animals received phosphate buffered saline (PBS) throughout the study; (ii) Control+GSNO animals were administered with GSNO 100 μg/kg body weight orally, dissolved in PBS after every 24 h for 8 weeks; (iii) Diabetic animals were injected with STZ at a dose of 40 mg/kg body weight intraperitoneally for 5 days dissolved in 0.1 mol/L citrate buffer, pH 4.5 and Diabetic+GSNO mice were administered GSNO 100 μg/kg body weight orally dissolved in PBS after every 24 h for 8 weeks after the induction of diabetes. Animals were assessed weekly for development of diabetic encephalopathy in terms of memory deficits. All experimental procedures were done on mice at the end of study. The microvessels were isolated by the method described by Brooks et al., (2005). Brain tissue was homogenized in microisolation buffer (103 mM NaCl, 4.7 mM KCl, 2.5 mM CaCb, 1.2 mM KH2PO4, 1.2 mM MgSO4, 15 mM HEPES, 2.5 mM NaHCO3, 10 mM D-glucose, 1 mM sodium pyruvate and 10 g/L dextran (64,000 mol wt), pH 7.4) and equal amount of 26% (w/v) dextran was added. The sample was then centrifuged at 5600 g for 10 min and pellets obtained were resuspended in microisolation buffer. Then the suspension was filtered through 70 μm filter (BD Biosciences, Gurgaon, India). The filtered homogenates were then centrifuged at 3000 g for 10 min at 4° C. and the pellet was obtained. Protein expression of tight junction proteins and cell adhesion molecules i.e. ZO-1, occludin, Claudin-5, ICAM-1 and VCAM-1 was studied in microvessels obtained from cortex and hippocampus regions of the brain (Towbin et al., 1992). […]

GSNOR = GSNOR (Homo sapiens, UniProt P11766); conditions: description of the compound; cited from earlier work
GSNOR, sequence (P11766 whole entry): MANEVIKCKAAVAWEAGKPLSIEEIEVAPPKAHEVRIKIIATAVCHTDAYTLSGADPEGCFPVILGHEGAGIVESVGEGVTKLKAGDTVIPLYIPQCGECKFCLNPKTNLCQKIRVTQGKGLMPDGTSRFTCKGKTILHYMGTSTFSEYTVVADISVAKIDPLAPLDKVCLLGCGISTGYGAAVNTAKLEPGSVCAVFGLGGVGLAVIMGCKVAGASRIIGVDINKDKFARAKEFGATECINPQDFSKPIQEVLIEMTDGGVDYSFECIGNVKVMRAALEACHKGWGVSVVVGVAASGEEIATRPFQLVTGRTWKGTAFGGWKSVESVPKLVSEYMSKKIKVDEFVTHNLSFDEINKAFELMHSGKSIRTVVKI

[2] = diabetic mice, GSNO 100 μg/kg body weight orally daily for 8 weeks, vs diabetic group
[3] = microvessels of cortex and hippocampus, diabetic mice + GSNO 100 μg/kg oral 8 weeks

| Compound | increase in the percentage of correct choices (diabetic mice; [2]) [%] | lowered number of errors (diabetic mice; [2]) [%] | radial arm maze parameters of GSNO-treated control mice (diabetic mice; non-diabetic control mice, GSNO 100 μg/kg orally for 8 weeks, vs control mice) | protein expression of claudin-5 ([1]; GSNO treated diabetic animals) | increase of protein expression of ZO-1 [1, 3] [%] | increase of protein expression of occludin [1, 3] [%] | inhibition of GSNOR (GSNOR) |
| --- | --- | --- | --- | --- | --- | --- | --- |
| N[C@@H](CCC(=O)N[C@@H](CSN=O)C(=O)NCC(=O)O)C(=O)O [GSNO, S-nitrosoglutathione] | 30 | 44 | not significantly different from control mice | no significant change | ~70 | ~60 | – |
| Cc1cc(C(N)=O)ccc1-n1c(CCC(=O)O)ccc1-c1ccc(-n2ccnc2)cc1 [N6022, reference compound] | – | – | – | – | – | – | very potent, specific, and reversible inhibitor |
